Assay results: ChEMBL document CHEMBL4725447, “De-risking Drug Discovery of Intracellular Targeting Peptides: Screening Strategies to Eliminate False-Positive Hits” (ACS Med Chem Lett, 2020)
pEC50, pKd: −log10 of the molar value. Each block holds one compound with its values, some of them ahead of it. Active and inactive are the calls of the source. The rule behind the calls is not given here. Where a SMILES comes first, the peptide text is derived from it. Bridges are numbered along the chain shown (N, C = ends). [ ]: non-standard residue; d: D form. Phe(4-F) = N[C@@H](Cc1ccc(F)cc1)C(=O)O; d2Nal = N[C@H](Cc1ccc2ccccc2c1)C(=O)O; S5 = C=CCCC[C@](C)(N)C(=O)O

Columns and labels:
HCT-116 [1] = test: Cytotoxicity against human HCT116 cells assessed as effect on cell membrane preincubated overnight measured after 4 hrs post stimulation by LDH release assay; type: cell-based
[2] = system: GTPase KRas (Homo sapiens), P01116 [G12D]; test: Binding affinity to KRAS G12D mutant (unknown origin) assessed as change in melting temperature by SYPRO orange dye based thermal shift assay
GTPase KRas (Homo sapiens), P01116 [G12D], sequence (P01116 whole entry G12D, looked up): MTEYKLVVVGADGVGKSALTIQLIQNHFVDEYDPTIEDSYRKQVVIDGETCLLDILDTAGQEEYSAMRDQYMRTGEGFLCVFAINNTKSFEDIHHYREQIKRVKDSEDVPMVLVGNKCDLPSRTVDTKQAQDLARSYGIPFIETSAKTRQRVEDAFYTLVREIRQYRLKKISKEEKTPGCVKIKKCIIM

[3] = Aggregation property of peptides assessed as stable aggregates at 10 uM by dynamic light scattering analysis; type: physicochemical
HCT-116 [4] = test: Cytotoxicity against human HCT116 cells assessed as effect on cell membrane preincubated overnight measured after 4 hrs post stimulation by LDH release assay relative to control; type: cell-based; conditions: hct-116, 4 h
[5] = Aggregation property of FAM-labelled peptides assessed as diameter of aggregate size at 10 uM by dynamic light scattering analysis; type: physicochemical
[6] = molecular target: E3 ubiquitin-protein ligase Mdm2 (Homo sapiens) (UniProt Q00987); test: Binding affinity to MDM2 (unknown origin) using FAM-labelled peptide as substrate in absence of Tween20 by fluorescence polarization assay
E3 ubiquitin-protein ligase Mdm2 (Homo sapiens), sequence (Q00987 whole entry, looked up): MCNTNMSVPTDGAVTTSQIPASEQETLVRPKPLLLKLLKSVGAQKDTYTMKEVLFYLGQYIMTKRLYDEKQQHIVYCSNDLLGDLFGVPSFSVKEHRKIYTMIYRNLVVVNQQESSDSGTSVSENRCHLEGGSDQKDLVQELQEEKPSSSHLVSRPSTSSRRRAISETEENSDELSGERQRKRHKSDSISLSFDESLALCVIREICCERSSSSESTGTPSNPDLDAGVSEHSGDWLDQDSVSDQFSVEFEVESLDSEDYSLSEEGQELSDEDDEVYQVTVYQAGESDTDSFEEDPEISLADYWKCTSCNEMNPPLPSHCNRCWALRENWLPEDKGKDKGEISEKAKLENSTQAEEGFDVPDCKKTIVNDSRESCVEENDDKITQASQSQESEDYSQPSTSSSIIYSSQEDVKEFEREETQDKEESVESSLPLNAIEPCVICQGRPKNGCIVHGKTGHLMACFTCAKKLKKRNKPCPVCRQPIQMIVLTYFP

[7] = system: GTPase KRas (Homo sapiens), P01116 [G12D]; test: (§1) Binding affinity to KRAS G12D mutant (unknown origin) using FAM-labelled peptide as substrate in absence of Tween20 by fluorescence polarization assay
[8] = molecular target: Eukaryotic translation initiation factor 4E (Homo sapiens) (UniProt P06730); test: Binding affinity to eIF4E (unknown origin) using FAM-labelled peptide as substrate in absence of Tween20 by fluorescence polarization assay
Eukaryotic translation initiation factor 4E (Homo sapiens), sequence (P06730 whole entry): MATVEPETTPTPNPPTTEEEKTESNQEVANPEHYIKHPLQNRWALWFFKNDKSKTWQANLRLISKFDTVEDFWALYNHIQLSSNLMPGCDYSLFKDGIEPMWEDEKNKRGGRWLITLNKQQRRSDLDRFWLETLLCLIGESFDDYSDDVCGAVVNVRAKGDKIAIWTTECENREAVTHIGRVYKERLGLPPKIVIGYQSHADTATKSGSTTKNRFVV

[9] = molecular target: Eukaryotic translation initiation factor 4E (Homo sapiens) (UniProt P06730); test: Binding affinity to eIF4E (unknown origin) using FAM-labelled peptide as substrate in presence of Tween20 by fluorescence polarization assay
[10] = molecular target: E3 ubiquitin-protein ligase Mdm2 (Homo sapiens) (UniProt Q00987); test: Binding affinity to MDM2 (unknown origin) using FAM-labelled peptide as substrate in presence of Tween20 by fluorescence polarization assay
[11] = molecular target: Eukaryotic translation initiation factor 4E (Homo sapiens) (UniProt P06730); test: Binding affinity to eIF4E (unknown origin) in presence of peptides at 300 nM by surface plasmon resonance analysis
[12] = system: GTPase KRas (Homo sapiens), P01116 [G12D]; test: Binding affinity to KRAS G12D mutant (unknown origin) in presence of FAM-labelled peptide at 1 uM by surface plasmon resonance analysis
A549 = test: Antiproliferation activity against human A549 cells assessed as measuring ATP content at > 20 uM measured after 72 hrs by CellTiter-Glo analysis; type: functional, cell-based; conditions: dose microM >20, time 72.0 hrs
[13] = molecular target: Eukaryotic translation initiation factor 4E (Homo sapiens) (UniProt P06730); test: Binding affinity to eIF4E (unknown origin) upto 1 uM by surface plasmon resonance analysis
GTPase KRas [14] = molecular target: T1, GTPase KRas (Homo sapiens, UniProt P01116); test: Binding affinity to wild type KRAS (unknown origin) using FAM-labelled peptide as substrate in absence of Tween20 by fluorescence polarization assay
Target sequence in this assay (P01116 whole entry): as the sequence (P01116 whole entry G12D, looked up) above, with D12G counted along it

GTPase KRas [15] = molecular target: T1, GTPase KRas; test: Binding affinity to wild type KRAS (unknown origin) using FAM-labelled peptide as substrate in presence of Tween20 by fluorescence polarization assay
Target sequence in this assay (P01116 whole entry, looked up): as the sequence (P01116 whole entry G12D, looked up) above, with D12G counted along it

Homo sapiens = species: Homo sapiens; test: Binding affinity to KRAS Q61H mutant (unknown origin) using FAM-labelled peptide as substrate in presence of Tween20 by fluorescence polarization assay
U2OS = test: Antiproliferation activity against human U2OS cells assessed as measuring ATP content at > 20 uM measured after 72 hrs by CellTiter-Glo analysis; type: functional, cell-based; conditions: dose microM >20, time 72.0 hrs
[16] = system: GTPase KRas (Homo sapiens), P01116 [G12D]; test: Binding affinity to KRAS G12D mutant (unknown origin) upto 1 uM by surface plasmon resonance analysis; conditions: dose microM <=1
[17] = molecular target: E3 ubiquitin-protein ligase Mdm2 (Homo sapiens) (UniProt Q00987); test: Binding affinity to MDM2 (unknown origin) in presence of FAM-labelled peptides at 1 uM by surface plasmon resonance analysis
GTPase KRas [18] = molecular target: T1, GTPase KRas; test: Inhibition of KRAS in human U2OS cells assessed as inhibition in phosphorylation of ERK at 20 uM incubated for 15 mins by Western blot analysis; type: cell-based
Target sequence in this assay (P01116 whole entry, looked up): as the sequence (P01116 whole entry G12D, looked up) above, with D12G counted along it

[19] = molecular target: E3 ubiquitin-protein ligase Mdm2 (Homo sapiens) (UniProt Q00987); test: Binding affinity to MDM2 (unknown origin) upto 1 uM by surface plasmon resonance analysis; conditions: dose microM <=1
[20] = system: GTPase KRas (Homo sapiens), P01116 [G12D]; test: Binding affinity to KRAS G12D mutant (unknown origin) by isothermal titration calorimetry
GTPase KRas [21] = molecular target: GTPase KRas (Homo sapiens, UniProt P01116, G12D); test: as §1
GTPase KRas (Homo sapiens, UniProt P01116, G12D), sequence (P01116 whole entry G12D): as the sequence (P01116 whole entry G12D, looked up) above

[22] = molecular target: Eukaryotic translation initiation factor 4E (Homo sapiens) (UniProt P06730); test: Binding affinity to eIF4E (unknown origin) in presence of Fam-labelled peptides at 1 uM by surface plasmon resonance analysis
[23] = system: GTPase KRas (Homo sapiens), P01116 [G12V]; test: Binding affinity to KRAS G12V mutant (unknown origin) by isothermal titration calorimetry
GTPase KRas (Homo sapiens), P01116 [G12V], sequence (P01116 whole entry G12V): as the sequence (P01116 whole entry G12D, looked up) above, with D12V counted along it

SMILES: C=CCCC[C@](C)(NC(=O)[C@H](CC(N)=O)NC(=O)[C@@H](NC(=O)[C@H](CC(C)C)NC(=O)[C@](C)(CCCC=C)NC(=O)[C@@H](NC(=O)CNC(=O)[C@H](Cc1ccccc1)NC(=O)[C@H](Cc1ccccc1)NC(=O)[C@H](CCCNC(=N)N)NC(=O)[C@H](CCCNC(=N)N)NC(C)=O)[C@@H](C)CC)[C@@H](C)O)C(=O)N[C@@H](CC(C)C)C(=O)N[C@@H](CCCCN)C(=O)N[C@H](C(=O)N[C@@H](CCC(=O)O)C(=O)N[C@@H](CCC(=O)O)C(=O)NCC(=O)N[C@@H](CC(N)=O)C(N)=O)[C@@H](C)O
pEC50 (HCT-116 [1]): 5.10

SMILES: CCCC[C@H]1NC(=O)[C@@H](Cc2ccc(F)cc2)NC(=O)[C@H](CCCNC(=N)N)NC(=O)[C@@H](Cc2ccc3ccccc3c2)NC(=O)[C@H](CCCNC(=N)N)NC(=O)[C@H](CCCNC(=N)N)NC(=O)[C@@H](CCCNC(=N)N)NC(=O)[C@@H](C)NC(=O)[C@H](C(C)(C)C)NC(=O)[C@H](Cc2c[nH]c3ccccc23)NC(=O)[C@H](CCC(N)=O)NC1=O
ΔTm [2]: -5.9 °C

SMILES: CC(=O)NCCCC[C@H](N)C(=O)N[C@@H](CCCCN)C(=O)N[C@@H](CCCNC(=N)N)C(=O)N[C@@H](Cc1ccc(O)cc1)C(=O)N[C@@H](CO)C(=O)N[C@@H](CCCNC(=N)N)C(=O)N[C@@]1(C)CCC/C=C/CCC[C@@](C)(C(=O)N[C@@H](Cc2ccccc2)C(N)=O)NC(=O)[C@H](C(C)C)NC(=O)[C@H](C(C)C)NC(=O)[C@H](Cc2ccccc2)NC1=O (H-K(Ac)KRYSR[S5]FVV[S5]F-NH2; staple (E) 7-11)
pEC50 (HCT-116 [1]): 4.70

SMILES: C[C@H]1NC(=O)[C@H](CCCNC(=N)N)NC(=O)[C@H](Cc2c[nH]c3ccccc23)NC(=O)[C@H](CCCNC(=N)N)NC(=O)[C@H](Cc2ccc(F)cc2)NC(=O)[C@H](CCCNC(=N)N)NC(=O)[C@@H](Cc2ccc3ccccc3c2)NC(=O)[C@H](CCCNC(=N)N)NC(=O)[C@H](CCCNC(=N)N)NC(=O)[C@H](CCC(N)=O)NC1=O (cyclo(RR[d2Nal]R[Phe(4-F)]RWR[dA]Q))
Activity (HCT-116 [4]): < 10%

SMILES: CC(=O)N[C@@H](CC(C)C)C(=O)N[C@H](C(=O)N[C@@H](Cc1ccccc1)C(=O)N[C@]1(C)CCCCCC/C=C/CCC[C@@](C)(C(=O)N[C@@H](CO)C(=O)N[C@@H](C)C(=O)N[C@@H](C)C(N)=O)NC(=O)[C@H](CC2CCC2)NC(=O)[C@H](CC(C)C)NC(=O)[C@H](CCC(N)=O)NC(=O)[C@H](Cc2c[nH]c3ccccc23)NC(=O)[C@H](Cc2ccc(O)cc2)NC(=O)[C@H](CCC(=O)O)NC1=O)[C@@H](C)O
Activity (HCT-116 [4]): < 10%

SMILES: CCCC[C@H]1NC(=O)[C@H](Cc2ccc(F)cc2)NC(=O)[C@H](CCCNC(=N)N)NC(=O)[C@@H](Cc2ccc3ccccc3c2)NC(=O)[C@H](CCCNC(=N)N)NC(=O)[C@H](CCCNC(=N)N)NC(=O)[C@H](CCCNC(=N)N)NC(=O)[C@H](C)NC(=O)[C@H]([C@@H](C)O)NC(=O)[C@@H](Cc2c[nH]c3ccccc23)NC(=O)[C@@H](CCC(N)=O)NC1=O
Activity [3]: Not Active | Activity (A549): Active | pEC50 (HCT-116 [1]): 4.52 | Activity [13]: inactive | Activity (U2OS): Active | Activity [16]: inactive | Activity [17]: Active | Activity (GTPase KRas [18]): inactive | Activity [23]: inactive | Activity [19]: inactive | Activity [20]: inactive | Activity [22]: Active

More lines, main results first:

Activity [3]: Not Active | Activity [5]: 1200 nm | Activity [6]: Active | Activity [7]: Active | Activity [8]: Active | Activity [9]: inactive | Activity [10]: inactive
SMILES: CC[C@H](C)[C@H](NC(=O)[C@]1(C)CCC/C=C/CCC[C@](C)(NC(=O)CNC(=O)[C@H](Cc2ccccc2)NC(=O)[C@H](Cc2ccccc2)NC(=O)[C@H](CCCNC(=N)N)NC(=O)[C@H](CCCNC(=N)N)NC(C)=O)C(=O)N[C@@H](Cc2ccc(O)cc2)C(=O)N[C@@H](CC(C)C)C(=O)N[C@@H]([C@@H](C)O)C(=O)N1)C(=O)N[C@@H](CC(C)C)C(=O)N[C@@H](CCCCN)C(=O)N[C@H](C(=O)N[C@@H](CCC(=O)O)C(=O)N[C@@H](CCC(=O)O)C(=O)NCC(=O)N[C@@H](CC(N)=O)C(N)=O)[C@@H](C)O
Activity (HCT-116 [4]): < 10%

Activity [11]: Active | Activity [12]: inactive
SMILES: CC(=O)N[C@@H](CCCCN)C(=O)N[C@@H](CCCCN)C(=O)N[C@@H](CCCNC(=N)N)C(=O)N[C@@H](Cc1ccc(O)cc1)C(=O)N[C@@H](CO)C(=O)N[C@@H](CCCNC(=N)N)C(=O)NC(C)(C)C(=O)N[C@@H](CCC(N)=O)C(=O)N[C@@H](CC(C)C)C(=O)N[C@@H](CC(C)C)C(=O)NC(C)(C)C(=O)N[C@@H](CC(C)C)C(N)=O
Activity (HCT-116 [4]): < 10%

Activity [3]: Not Active | Activity [13]: inactive | pKd (GTPase KRas [14]): 6.37 | Activity (GTPase KRas [15]): inactive | Activity [12]: inactive | Activity (Homo sapiens): inactive | Activity [5]: 350 nm | Activity [16]: inactive | Activity [17]: Active | inhibition (GTPase KRas [18]): Active | Activity [6]: Active | Activity [19]: inactive | Activity [20]: inactive | pKd (GTPase KRas [21]): 6.37 | Activity [8]: Active | Activity [22]: Active
SMILES: CC[C@H](C)[C@H](NC(=O)CNC(=O)[C@H](Cc1ccccc1)NC(=O)[C@H](Cc1ccccc1)NC(=O)[C@H](CCCNC(=N)N)NC(=O)[C@H](CCCNC(=N)N)NC(C)=O)C(=O)N[C@@]1(C)CCC/C=C/CCC[C@@](C)(C(=O)N[C@@H](CC(C)C)C(=O)N[C@@H](CCCCN)C(=O)N[C@H](C(=O)N[C@@H](CCC(=O)O)C(=O)N[C@@H](CCC(=O)O)C(=O)NCC(=O)N[C@@H](CC(N)=O)C(N)=O)[C@@H](C)O)NC(=O)[C@H](CC(N)=O)NC(=O)[C@H]([C@@H](C)O)NC(=O)[C@H](CC(C)C)NC1=O
Activity (A549): Active | pEC50 (HCT-116 [1]): 5.00 | Activity (U2OS): Active

Activity [12]: inactive
SMILES: CC(=O)N[C@@H](CC(C)C)C(=O)N[C@H](C(=O)N[C@@H](Cc1ccccc1)C(=O)N[C@]1(C)CCCCCC/C=C/CCC[C@@](C)(C(=O)N[C@H](CO)C(=O)N[C@H](C)C(=O)N[C@H](C)C(N)=O)NC(=O)[C@@H](CC2CCC2)NC(=O)[C@H](CC(C)C)NC(=O)[C@H](CCC(N)=O)NC(=O)[C@H](Cc2c[nH]c3ccccc23)NC(=O)[C@H](Cc2ccc(O)cc2)NC(=O)[C@H](CCC(=O)O)NC1=O)[C@@H](C)O
